Measurements: paper PMC11352409, “Subtype-Specific Ligand Binding and Activation Gating in Homomeric and Heteromeric P2X Receptors” (Biomolecules, 2024)
Values joined by “and” are separate entries in the source; they are usually repeats but may differ in a detail not shown here. Equal entries are not always repeated.

Columns and labels:
Type in all cases: cell-based
human P2X3 receptors = biological target: T1, human P2X3 receptors (Homo sapiens, UniProt P56373); test: Whole-cell patch-clamp concentration-activation, HEK293 cells stably expressing hP2X3; settings: for Hill: hP2X3, Hill coefficient of concentration-activation fit; for Effect (Fold in ATP Potency): hP2X3, relative to ATP; for Effect (Fold in ATP Efficacy): hP2X3, relative to current at 100 µM ATP; for EC50: hP2X3, whole-cell, -50 mV, divalent-cation-free bath with 10 mM EGTA, normalised to 100 µM ATP
T1 construct: expressed in transfected cells
T1 sequence (P56373 1-397): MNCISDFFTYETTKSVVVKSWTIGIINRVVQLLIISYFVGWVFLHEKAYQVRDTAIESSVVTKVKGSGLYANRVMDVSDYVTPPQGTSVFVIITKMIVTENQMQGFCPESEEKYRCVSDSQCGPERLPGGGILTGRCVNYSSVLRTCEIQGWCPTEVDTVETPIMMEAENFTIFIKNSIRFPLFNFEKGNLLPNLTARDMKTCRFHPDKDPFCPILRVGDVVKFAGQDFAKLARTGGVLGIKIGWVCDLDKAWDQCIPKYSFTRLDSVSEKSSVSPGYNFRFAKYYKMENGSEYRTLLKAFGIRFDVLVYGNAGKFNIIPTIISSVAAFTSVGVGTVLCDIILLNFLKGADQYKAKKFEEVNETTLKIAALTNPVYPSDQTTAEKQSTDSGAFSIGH
Method: (§1) Human P2X receptors were expressed from HEK293 cell lines containing an inducible promoter system (Flp-In-T-REx 293, Invitrogen, Waltham, MA, USA). The used cell lines were: hP2X2 B (RRID: AC line CVCL_D6U1), hP2X3 (RRID: AC line CVCL_D6U3), and hP2X2/3 (RRID: AC line CVCL_D6U2). The cells were cultured in MEM supplemented with non-essential amino acids (Gibco, Waltham, MA, USA), 10% FCS, and antibiotics, according to the manufacturer’s instructions. For stable cell lines, Flp-In-T-REx 293 cells were transfected using the calcium phosphate method with a mixture of plasmids (0.3 µg pcDNA5/FRT/TO P2X gene and 1.5 µg pOG44) and selected for hygromycin resistance. The cells were seeded on glass coverslips for electrophysiological measurements and used 24–48 h after tetracycline induction ([…]).
(§2) Membrane currents were recorded with a standard patch-clamp technique in the whole-cell configuration. The patch pipettes were pulled from borosilicate glass (ID 1.0 mm, OD 2.0 mm; VITROCOM, Mountain Lakes, NJ, USA) using a micropipette puller (P-97, Sutter Instrument, Novato, CA, USA). The pipettes were filled with intracellular solution containing (mM) 142 NaCl, 5 BAPTA, 5 EGTA, and 10 HEPES at pH 7.4. The pipette resistance was from 2.0 to 6.0 MΩ. The bath solution contained (mM) 142 NaCl, 10 EGTA, 10 HEPES, and 10 glucose at pH 7.4. To increase the speed of recovery from the hP2X3 receptors, we additionally used a bath solution containing (mM) 142 NaCl, 10 HEPES, 10 glucose, 2 CaCl2, and 1 MgCl2. The cells were lifted for recording from the chamber bottom by the patch pipette and positioned in front of the outlet of the application pipette.
(§3) Solutions switches were carried out with the application pipette that had three barrels (inner diameter ~600 µm, Warner Instruments) controlled by a step motor (SF-77B, Warner Instruments). The speed of the laminar solution flow out of the barrels was estimated to be 2–5 cm/s. One barrel contained a control solution and another was connected to a solution selector (Vici Valco Instruments), which allowed us to apply different test solutions by exchanging the solution during the interval (60 sec for P2X2 and P2X2/3 receptors, 180 s for P2X3 receptors) of applying the control solution. Cells expressing hP2X3 were washed with 3 Units/mL apyrase for 30 min to remove ATP. To ensure the comparability of the data points between each application, we rinsed hP2X3 with the following solution for 3 min after each ATP application (mM): 142 NaCl, 10 HEPES, 10 glucose, 2 CaCl2, and 1 MgCl2 at pH 7.4. After sufficient recovery, we switched to the bath solution for 10 s and then to the solution of interest. The speed of the switch around a whole cell was estimated to be below 10 ms by switching between different salt solutions.
(§4) The saturation of activation was determined with ATP at 100 µM. The currents were recorded with a HEKA EPC 10 amplifier in combination with the patchmaster software. The sampling rate was 10 kHz and the recordings were on-line filtered at 2.9 kHz using a four-pole Bessel filter. The currents were recorded at a constant holding potential of −50 mV and the series resistance was compensated with the patchmaster software up to 80%.
(§5) The concentration–activation relationships from whole-cell measurements in the HEK293 cells were obtained from the maximum currents during ATP application. These current amplitudes were normalised with respect to the current at saturating ATP (100 µM) and the resulting data points were fitted I/ImaxATP = Amp/(1 + (EC50/[X])^h) (1) with the Origin 2019® software using a non-linear curve fitting routine. I is the actual current amplitude and ImaxATP is the maximum current amplitude at saturating ATP. The amplitude Amp is the efficacy of the respective ligands. EC50 is the ligand concentration generating the half-maximum current and h is the respective Hill coefficient. [X] is the actual concentration of ATP to be tested. […]

human P2X2/3 receptors = biological target: T2, human P2X2/3 receptors (Homo sapiens, UniProt P56373+Q9UBL9); test: Whole-cell patch-clamp concentration-activation, HEK293 cells stably expressing hP2X2/3
T2 construct: expressed in transfected cells
T2 sequence (Q9UBL9 1-404 isoform Q9UBL9-2): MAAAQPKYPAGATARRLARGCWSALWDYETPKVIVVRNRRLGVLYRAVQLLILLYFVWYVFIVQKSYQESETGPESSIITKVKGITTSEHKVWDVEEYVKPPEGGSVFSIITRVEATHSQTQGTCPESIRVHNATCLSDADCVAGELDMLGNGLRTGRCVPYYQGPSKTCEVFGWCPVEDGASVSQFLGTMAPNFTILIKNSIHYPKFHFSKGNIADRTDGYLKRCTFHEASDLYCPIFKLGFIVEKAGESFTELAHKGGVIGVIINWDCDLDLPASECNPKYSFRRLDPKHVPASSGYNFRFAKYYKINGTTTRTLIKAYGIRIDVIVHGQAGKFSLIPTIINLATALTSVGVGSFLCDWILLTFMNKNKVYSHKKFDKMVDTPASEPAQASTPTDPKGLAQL
T2 sequence (P56373 1-397): T1 sequence (P56373 1-397)
Method: as §1, §2, §3, §4, §5

human P2X2 receptors = biological target: T3, human P2X2 receptors (Homo sapiens, UniProt Q9UBL9); test: Whole-cell patch-clamp concentration-activation, HEK293 cells stably expressing hP2X2; settings: for Hill: hP2X2, Hill coefficient of concentration-activation fit; for Effect (Fold in ATP Potency): hP2X2, relative to ATP; for Effect (Fold in ATP Efficacy): hP2X2, relative to current at 100 µM ATP; for EC50: hP2X2, whole-cell, -50 mV, divalent-cation-free bath with 10 mM EGTA, normalised to 100 µM ATP
T3 construct: expressed in transfected cells
T3 sequence (Q9UBL9 1-404 isoform Q9UBL9-2): T2 sequence (Q9UBL9 1-404 isoform Q9UBL9-2)
Method: as §1, §2, §3, §4, §5

Nc1ncnc2c1ncn2[C@@H]1O[C@H](COP(=O)(O)OP(=O)(O)OP(=O)(O)O)[C@@H](O)[C@H]1O [ATP]
Hill (human P2X3 receptors): 1.3 ± 0.2
Effect (Fold in ATP Potency) (human P2X3 receptors): 1 fold
Effect (Fold in ATP Efficacy) (human P2X3 receptors): 1 fold
EC50 (human P2X3 receptors): 1.1 ± 0.1 µM
Hill (human P2X2/3 receptors; hP2X2/3, Hill coefficient of concentration-activation fit): 0.9 ± 0.1
Effect (Fold in ATP Potency) (human P2X2/3 receptors; hP2X2/3, relative to ATP): 1 fold
Effect (Fold in ATP Efficacy) (human P2X2/3 receptors; hP2X2/3, relative to current at 100 µM ATP): 1 fold
EC50 (human P2X2/3 receptors; hP2X2/3, whole-cell, -50 mV, divalent-cation-free bath with 10 mM EGTA, normalised to 100 µM ATP): 2.7 ± 0.4 µM
Current response in presence of Mg2+ (human P2X2 receptors; hP2X2, 0.3 µM ATP with 1 mM MgCl2 (27.5 nM ATP4- + 272.5 nM Mg2+ATP)): completely abolished
Hill (human P2X2 receptors): 1.1 ± 0.1
Effect (Fold in ATP Potency) (human P2X2 receptors): 1 fold
Effect (Fold in ATP Efficacy) (human P2X2 receptors): 1 fold
EC50 (human P2X2 receptors): 0.7 ± 0.1 µM

Nc1ncnc2c1ncn2[C@@H]1O[C@H](COP(=O)(O)CP(=O)(O)OP(=O)(O)O)[C@@H](O)[C@H]1O [α,βMe-ATP, αβmethylene-ATP]
Hill (human P2X3 receptors): 1.6 ± 0.7
Effect (Fold in ATP Potency) (human P2X3 receptors): 0.1 fold
Effect (Fold in ATP Efficacy) (human P2X3 receptors): 1.9 fold
EC50 (human P2X3 receptors): 9.6 ± 3.3 µM
Hill (human P2X2 receptors): 1.7 ± 1.5
Effect (Fold in ATP Potency) (human P2X2 receptors): 0.1 fold
Effect (Fold in ATP Efficacy) (human P2X2 receptors): 0.1 fold
Agonist behaviour (current response) (human P2X2 receptors; hP2X2, result in words): only partially
EC50 (human P2X2 receptors): ~6.8 µM and 6.8 µM
